Test [1] deals with beet armyworm (Spodoptera exiqua). The test can be described thus: whole plant or invertebrate. To be noted: 144 h, read-out: percent mortality, BAW.
In test [2] the test system is aster leafhopper (Macrosteles fascifrons). The test can be described thus: whole plant or invertebrate. To be noted: 24 h, read-out: percent mortality, ALH.
The test system of test [3] is two spotted spider mite (Tetranychus urticae). The test can be described thus: whole plant or invertebrate. To be noted: 72 h, read-out: percent mortality, TSSM.
Test [4] deals with tobacco budworm (Heliothis virescens). Kind of test: Activity against tobacco budworm (TBW). In kind it is in vivo. To be noted: 144 h, read-out: percent mortality, TBW. As to the method: In conducting evaluations of insecticidal activity, each test compound was formulated as a 400 ppm solution, and this solution was then diluted with water to give lesser concentrations. The 400 ppm solution was prepared by combining 19.2 mL of 0.05% solution of Tween 20 (polyoxyethylene (20) sorbitan monolaurate) in water with a solution of 8 mg of the compound in 0.8 mL of acetone/EtOH (9/1).
Activity against tobacco budworm (Heliothis virescens) was evaluated as follows. A general purpose lepidoptera artificial diet was diluted to half strength with a 5% non nutritive agar. 8 mL of this diet material was dispensed into each one ounce diet cup. One hour prior to treatment 18 to 20 eggs were dispensed onto the diet surface. The cups were then sprayed with formulated material through a flat-fan nozzle. The test was run using concentrations of 400 ppm and 50 ppm. Treated cups were air dried prior to sealing with plastic caps. The cups were held for 6 days at room temperature. Activity was then rated based on the total number of live and dead larvae, and on the size of live larvae.

The test system of test [5] is Southern corn rootworm (Diabrotica undecimpuctata howardi Barber). The test can be described thus: whole plant or invertebrate. To be noted: in Zea mays, soil, read-out: percent mortality, SCRW.
Test [6] has as its system German cockroach (Blattella germanicus). The test can be described thus: whole plant or invertebrate. To be noted: 240 h, read-out: percent mortality, GECR.
Test [7] concerns peanut root knot nematode (Meloidogyne arenaria). Kind of test: whole plant or invertebrate. To be noted: in Arachis hypogaea, read-out: percent mortality, RKN.
In test [8] the test system is cotton aphid (Aphis gossypii). Kind of test: whole plant or invertebrate. To be noted: 72 h, read-out: percent mortality, CA.

What is called mortality is the share of the test organisms that died.

Take `CCc1nccc(NC(=O)Cc2ccc(Oc3ccc(C#N)cc3)cc2)n1` [Compound 12, 4-(4-cyanophenoxy)phenyl-N-(2-ethyl-4-pyrimidinyl)acetamide]: the mortality at 400 ppm in test [1], in test [2], in test [3], in test [4], in test [6] and in test [7] was 100% in each case. In addition, the mortality at 400 ppm in test [8] amounted to 100%. Moreover, the mortality at 24 µg/g in test [5] is 100%.
Take `Cc1nccc(NC(=O)Cc2ccc(Oc3ccc(Cl)cc3)cc2)n1` [Compound 1, 4-(4-chlorophenoxy)phenyl-N-(2-methyl-4-pyrimidinyl)acetamide]: the mortality at 400 ppm in test [1] is 100%; in test [2], 0%; in test [3], 100%; in test [4], 100%; in test [6], 100%; in test [7], 100%. Besides, the mortality at 400 ppm in test [8] was determined as 100%. In addition, the mortality at 24 µg/g in test [5] amounted to 100%.
Turning to `CCc1nccc(NC(=O)Cc2ccc(Oc3ccc(C(F)(F)F)cc3)cc2)n1` [Compound 11, 4-(4-trifluoromethylphenoxy)phenyl-N-(2-ethyl-4-pyrimidinyl)acetamide], the mortality at 400 ppm was found to be 100% in test [1]; 80% in test [2]; 100% in test [3]; 100% in test [4]; 100% in test [6]; 80% in test [7]. Besides, the mortality at 400 ppm in test [8] turned out to be 100%. Moreover, in test [5], the mortality at 24 µg/g was 100%.
As to `Cc1nccc(NC(=O)Cc2ccc(Oc3ccc(C(F)(F)F)cc3)cc2)n1` [Compound 63, 4-(4-trifluoromethylphenoxy)phenyl-N-(2-methyl-4-pyrimidinyl)acetamide], the mortality at 400 ppm in test [1] was found to be 100%; in test [2], 60%; in test [3], 100%; in test [4], 100%; in test [6] it was 100%; in test [7], 0%. Moreover, the mortality at 400 ppm in test [8] came to 100%. The mortality at 24 µg/g in test [5] was 0%.
Regarding `O=C(Cc1ccc(Oc2ccc(C(F)(F)F)cc2)cc1)Nc1ccnc(C2CC2)n1` [Compound 67, 4-(4-trifluoromethylphenoxy)phenyl-N-(2-cyclopropyl-4-pyrimidinyl)acetamide], the mortality at 400 ppm in test [1] turned out to be 100%; in test [2], 60%; in test [3] it was 100%; in test [4], 100%; in test [6] it was 100%; in test [7], 100%. Also, the mortality at 400 ppm in test [8] amounted to 100%. The mortality at 24 µg/g in test [5] worked out at 100%.
As for `O=C(Cc1ccc(Oc2ccc(F)cc2)cc1)Nc1ccnc(-c2ccccc2)n1` [Compound 7, 4-(4-fluorophenoxy)phenyl-N-(2-phenyl-4-pyrimidinyl)acetamide], the mortality at 400 ppm in test [1] was 60%; in test [2], 0%; in test [3], 0%; in test [4] it was 60%; in test [6], 60%; in test [7], 0%. Moreover, in test [8], the mortality at 400 ppm came to 100%. The mortality at 24 µg/g in test [5] amounted to 0%.
Regarding `CC(C)(C)c1nccc(NC(=O)Cc2ccc(Oc3ccc(C#N)cc3)cc2)n1` [Compound 60, 4-(4-cyanophenoxy)phenyl-N-(2-(1,1-dimethylethyl)-4-pyrimidinyl)acetamide], the mortality at 400 ppm in test [1], in test [2], in test [3], in test [4], in test [6] and in test [7] was 100% in each case. The mortality at 400 ppm in test [8] amounted to 100%. In test [5], the mortality at 24 µg/g was 100%.
`CCc1nccc(NC(=O)Cc2ccc(Oc3ccc([N+](=O)[O-])cc3)cc2)n1` [Compound 53, 4-(4-nitrophenoxy)phenyl-N-(2-ethyl-4-pyrimidinyl)acetamide]: the mortality at 400 ppm in test [1] is 100%; in test [2], 90%; in test [3], 100%; in test [4], 100%; in test [6] it was 80%; in test [7], 100%. In addition, the mortality at 400 ppm in test [8] turned out to be 100%. Further, the mortality at 24 µg/g in test [5] is 100%.
As for `Cc1nccc(NC(=O)Cc2cccc(Oc3ccccc3)c2)n1` [Compound 8, 3-phenoxyphenyl-N-(2-methyl-4-pyrimidinyl)acetamide], the mortality at 400 ppm in test [1] is 0%; in test [2], 100%; in test [3], 0%; in test [4], 0%; in test [6], 40%; in test [7] it was 0%. The mortality at 400 ppm in test [8] is 100%. Besides, the mortality at 24 µg/g in test [5] worked out at 0%.
With `O=C(Cc1ccc(Oc2ccc(F)cc2)cc1)Nc1ccnc(Cl)n1` [Compound 54, 4-(4-fluorophenoxy)phenyl-N-(2-chloro-4-pyrimidinyl)acetamide], the mortality at 400 ppm in test [1] was determined as 100%; in test [2], 0%; in test [3] it was 0%; in test [4], 60%; in test [6] it was 0%; in test [7], 0%. For the same compound, in test [8], the mortality at 400 ppm came to 0%. In addition, the mortality at 24 µg/g in test [5] amounted to 0%.
On to `CCc1nccc(NC(=O)C(=CNCC(C)C)c2ccc(Oc3ccc(C#N)cc3)cc2)n1` [Compound 80, 3-(2-methylpropylamino)-N-(2-ethyl-4-pyrimidinyl)-2-(4-(4-cyanophenoxy)phenyl)-2-propenamide], for which the mortality at 400 ppm amounted to 100% in test [1]; 60% in test [2]; 100% in test [3]; 100% in test [4]; 100% in test [6]; 100% in test [7]. In addition, the mortality at 400 ppm in test [8] turned out to be 100%. In addition, the mortality at 24 µg/g in test [5] was 100%.
Turning to `CC(C)(C)c1nccc(NC(=O)Cc2ccc(Oc3ccc(C(F)(F)F)cc3)cc2)n1` [Compound 62, 4-(4-trifluoromethylphenoxy)phenyl-N-(2-(1,1-dimethylethyl)-4-pyrimidinyl)acetamide], the mortality at 400 ppm amounted to 100% in test [1]; 80% in test [2]; 100% in test [3]; 100% in test [4]; 100% in test [6]; 0% in test [7]. For the same compound, the mortality at 400 ppm in test [8] turned out to be 100%. The mortality at 24 µg/g in test [5] was found to be 100%.
`CCc1nccc(NC(=O)C(=CN(C)C)c2ccc(Oc3ccc(C#N)cc3)cc2)n1` [Compound 78, 3-(dimethylamino)-N-(2-ethyl-4-pyrimidinyl)-1-(4-(4-cyanophenoxy)phenyl)-2-propenamide]: the mortality at 400 ppm worked out at 100% in test [1]; 60% in test [2]; 80% in test [3]; 100% in test [4]; 80% in test [6]; 100% in test [7]. In addition, in test [8], the mortality at 400 ppm stood at 80%. In test [5], the mortality at 24 µg/g came to 0%.
Take `CCc1nccc(NC(=O)Cc2ccc(Oc3ccc(C#N)cn3)cc2)n1` [Compound 13, 4-(5-cyano-2-pyridinyloxy)phenyl-N-(2-ethyl-4-pyrimidinyl)acetamide]: the mortality at 400 ppm is 100% in test [1]; 0% in test [2]; 100% in test [3]; 100% in test [4]; 60% in test [6]; 100% in test [7]. In addition, the mortality at 400 ppm in test [8] is 100%. The mortality at 24 µg/g in test [5] was determined as 0%.
`CC(C)(C)c1nccc(NC(=O)Cc2ccc(Oc3ccc(Cl)cc3)cc2)n1` [Compound 59, 4-(4-chlorophenoxy)phenyl-N-(2-(1,1-dimethylethyl)-4-pyrimidinyl)acetamide]: the mortality at 400 ppm in test [1] came out at 100%; in test [2] it was 80%; in test [3] it was 0%; in test [4], 100%; in test [6], 100%; in test [7], 0%. The mortality at 400 ppm in test [8] worked out at 100%. For the same compound, the mortality at 24 µg/g in test [5] was determined as 100%.
On to `O=C(Cc1ccc(OCC(F)(F)F)cc1)Nc1ccnc(-c2ccccc2)n1` [Compound 5, 4-(2,2,2-trifluroethoxy)phenyl-N-(2-phenyl-4-pyrimidinyl)acetamide], for which the mortality at 400 ppm in test [1] worked out at 30%; in test [2], 0%; in test [3], 0%; in test [4], 0%; in test [6] it was 0%; in test [7], 0%. Besides, the mortality at 400 ppm in test [8] amounted to 0%. For the same compound, the mortality at 24 µg/g in test [5] was 0%.

The values above are taken from patent US5556859A, “N-(4-pyrimidinyl)amide pesticides” (DowElanco, priority 1994, dated 1996).
